Reference: patent US10894798B2, “Substituted dihydropyrrolopyrazole derivative” (UBE INDUSTRIES, LTD., priority 2015, dated 2021)

Key:
[1] = system: human large intestine cancer cell line (HCT-116) tumor; assay: In vivo tumor growth inhibition test for human large intestine cancer cell line by combined use with chemotherapeutic; settings: for Rate of suppression of tumor volume: IV-361 25 mg/kg/day oral, alone
Experimental: The prepared cell suspension was subcutaneously injected at 0.1 mL/mouse to the right abdomens of female BALB nude mice (supplied by Charles River Laboratories Japan, Inc.).
Individuals whose tumor volume was within the range of 50 to 200 mm^3 were selected and grouped such that the tumor volume was almost equivalent. After the grouping, a test compound or only a solvent was administered in a repeated manner to the mice of each group as follows:
Single-agent administration group:
Control group: solvent (administered once a day)
5-FU, oxaliplatin, and irinotecan were intraperitoneally administered (5 mL/kg).
After a lapse of a predetermined period, the body weights of the mice of each group and the long diameter and short diameter of tumor were measured, and the tumor volume of the test compound-administered group with respect to the tumor volume of the control group was calculated as the rate of suppression of tumor volume (%).

[2] = system: human large intestine cancer cell line HCT-116; assay: In vitro cell growth inhibitory activity against human large intestine cancer line by combined use with chemotherapeutic; type: cell-based; settings: HCT-116, 3 days, IV-361 10 nM
Experimental: A human large intestine cancer cell line HCT-116 (obtained from DS Pharma Biomedical Co., Ltd.) was cultured in a McCoy's 5A medium (manufactured by Thermo Fisher Scientific, Inc.) containing 10% fetal bovine serum (FBS) (manufactured by Thermo Fisher Scientific, Inc.) and 1% penicillin/streptomycin/amphotericin B (manufactured by Thermo Fisher Scientific, Inc.) and inoculated at 0.5 to 2.0×10^3 cells/well to a 96-well plate. The cells were cultured overnight in a carbon dioxide incubator of 37° C. containing 5% carbon dioxide. The medium was replaced with a fresh medium on the next day, and then, a mixed solution of a DMSO solution of a test compound (IV-361, 5-FU or SN-38) with varying concentrations and a cell culture medium (final DMSO concentration: 0.2%) was added thereto. The concentration of the test compound was 10 nM, the concentration of 5-FU (manufactured by Wako Pure Chemical Industries, Ltd.) was 1000 nM, and the concentration of SN-38 (manufactured by Tocris Bioscience) was adjusted to 1 nM to carry out the test. For a control group, a mixed solution of DMSO and a cell culture medium (final DMSO concentration: 0.2%) was used instead of the DMSO solution of the test compound.
After the addition of the DMSO solution of the test compound, the cells were cultured for 3 days in a carbon dioxide incubator. Then, the absorbance (measurement wavelength: 565 nm) of the medium in each group was measured by using In Vitro Toxicology Assay Kit Sulforhodamine B based (manufactured by Sigma-Aldrich Co. LLC.).
The rate of inhibition of growth (%) was calculated according to the expression given below. Specifically, in the case where the difference between the average absorbance before culture (day 0) and the average absorbance after culture in the test compound-administered group is the same as the difference between the average absorbance before culture (day 0) and the average absorbance after culture in the control group, the rate of inhibition of cell growth is 0%. Rate of inhibition of growth=(1−((Average absorbance of the test compound-administered group after culture)−(Average absorbance of the test compound-administered group on day 0))/((Average absorbance of the control group after culture)−(Average absorbance of the control group on day 0)))×100

[3] = system: mouse collagen-induced arthritis model; assay: Swelling suppression test using mouse collagen-induced arthritis model; type: in vivo; settings: dose of 100 mg/kg, repeated oral administration, male DBA/1J mice
Experimental: A mouse collagen-induced arthritis model test was carried out by modifying the method of Mihara et al. (British Journal of Pharmacology, 154, 153 (2008)).
Male DBA/1J mice (supplied by Japan SLC, Inc.) were used as laboratory animals. An adjuvant prepared from a type II collagen solution (Collagen Research Center) and Adjuvant Complete Freund (manufactured by Difco Laboratories Ltd.) was intracutaneously administered twice to the bases of the tails of the mice under inhalation anesthesia with isoflurane (manufactured by Wako Pure Chemical Industries, Ltd.) for sensitization to prepare arthritis models.
Also, Adjuvant Complete Freund (manufactured by Difco Laboratories Ltd.) not containing type II collagen was administered by a similar method to obtain a control group. […]
During the test period, the swelling scoring of limbs (score 0: no disease, score 1: swelling and redness or weak swelling in the small joint of only one of the toes and the fingers, score 2: moderate swelling in the small joints of two or more of the toes and the fingers, score 3: strong swelling in the ankle or the forefoot wrist, score 4: overall strong swelling) was carried out to evaluate the drug efficacy of the test compound. When the total score of the solvent-administered group on the final day was defined as 100%, the rate of reduction in score (%) at each dose of the test compound was calculated.

With `Cc1ccc(F)cc1NC(=O)N1Cc2c(NC(=O)C3([Si](C)(C)C)CCC3)n[nH]c2C1(C)C` [IV-361, N-(5-Fluoro-2-methylphenyl)-6,6-dimethyl-3-[1-(trimethylsilyl)cyclobutanecarboxamido]-4,6-dihydropyrrolo[3,4-c]pyrazole-5 (1H)-carboxamide] the “rate of suppression of tumor volume in combined use with chemotherapeutic (5-FU, oxaliplatin or irinotecan)” value ([1]; 25 mg/kg IV-361 oral + 15 mg/kg 5-FU, 3 mg/kg oxaliplatin or 12.5 mg/kg irinotecan i.p., HCT-116 nude mice) was “excellent rate of suppression of tumor volume”, the “Rate of suppression of tumor volume” value ([1]; Table 52) was 46% and the “Rate of suppression of tumor volume” value ([1]; Table 53) was 46%. For the same molecule, the “Rate of suppression of tumor volume” value ([1]; Table 54) was 20%, the inhibition at 0.01 µM ([2]; Homo sapiens, 72 h, single-agent treatment, read-out: Rate of inhibition of growth (%)) was 11% and the “cancer cell growth inhibitory effect in combined use with chemotherapeutic (5-FU or SN-38)” value ([2]; 5-FU 1000 nM, SN-38 1 nM) was “synergistic cancer cell growth inhibitory effect”. For the same molecule, the “rate of inhibition (reduction in swelling score)” value [3] was no less than 50%.
